Assay results taken from patent US12318367B2, “Pharmaceutical composition” (ASTRAZENECA AB, priority 2008, dated 2025).

Assays:
[1] = Bioavailability of the salt compared with free base and other salts; format: in vivo; settings: compared to the free base form of the Agent and other salts
[2] = Dissolution rate of the salt compared with free base and other salts; format: physicochemical; settings: compared to the free base form of the Agent and other salts
[3] = Biopharmaceutical Classification System (BCS) classification; format: physicochemical; settings: indicates low solubility/dissolution rate and low permeability
[4] = Bioavailability of the free base form from a conventional tablet formulation; settings: dog, in vivo, oral, in dogs

Structure (SMILES)	bioavailability [1]	dissolution rate [2]	BCS classification [3]	bioavailability [4] [%]
Cn1cnc2c(F)c(Nc3ccc(Br)cc3Cl)c(C(=O)NOCCO)cc21 [Agent, 6-(4-bromo-2-chloro-phenylamino)-7-fluoro-3-methyl-3H-benzoimidazole-5-carboxylic acid (2-hydroxy-ethoxy)-amide]	particularly high	particularly high	–	–
Cn1cnc2c(F)c(Nc3ccc(Br)cc3Cl)c(C(=O)NOCCO)cc21 [free-base form of the Agent, 6-(4-bromo-2-chloro-phenylamino)-7-fluoro-3-methyl-3H-benzoimidazole-5-carboxylic acid (2-hydroxy-ethoxy)-amide]	–	–	BCS Class 4	~18
